Laboratory results: US20100016298A1, “Theramutein modulators” (priority 2005, published 2010)

These compounds were tested against T1, Ba/F3 cells expressing the p210Bcr-Abl-T315I theramutein (Homo sapiens, UniProt P00519, T315I, cells depend on it) (assay: cellular assay system: growth inhibition (cell count), Ba/F3 T315I cell line). Conditions: concentration inhibiting growth of the cell line by 50%, read-out: IC50 activity category, T315I.
T1 construct: IC50 activity category, T315I; T315I cell line; even at 10 μM concentration; fused on or other part: P11274 (Breakpoint cluster region protein)
Type: cell-based, murine

SMILES | GI50 [µM]
Cc1ccc(/C=N/Nc2ncc(F)c(N3CCOCC3)n2)cc1 | > 10
Fc1cnc(N/N=C/c2ccccc2)nc1N1CCOCC1 | > 10
CC(C(=O)O)c1ccc(Nc2ccc(/C=N/Nc3ncc(F)c(N4CCOCC4)n3)nc2)cc1 (centres unmarked) | > 10
Oc1ccccc1/C=N/Nc1ncc(F)c(N2CCOCC2)n1 | < 10
Fc1cnc(N/N=C/c2ccc(Nc3cccc(C(F)(F)F)c3)cn2)nc1-c1cncc(C2CC2)c1 | < 10
O=C(C/C=N/Nc1ncc(F)c(N2CCOCC2)n1)Nc1cccc(C(F)(F)F)c1 | > 10
Cc1ccccc1/C=N/Nc1ncc(F)c(N2CCOCC2)n1 | > 10
Cc1cccc(Cl)c1NC(=O)C/C=N/Nc1ncc(F)c(N2CCOCC2)n1 | > 10
Fc1cnc(N/N=C/c2ccc(Nc3cccc(-n4ccnc4)c3)cn2)nc1N1CCOCC1 | < 1
Fc1cnc(N/N=C/c2ccccn2)nc1N1CCOCC1 | < 1
Cc1cc(Nc2cccc(C(F)(F)F)c2)ccc1/C=N/Nc1ncc(F)c(N2CCOCC2)n1 | > 10
O=C(Nc1cccc(C(F)(F)F)c1)c1cccc(/C=N/Nc2ncc(F)c(N3CCOCC3)n2)n1 | > 10
O=C(Nc1cccc(C(F)(F)F)c1)c1cc(Cl)c(O)c(/C=N\Nc2ncc(F)c(N3CCOCC3)n2)c1 | < 1
Fc1cnc(N/N=C/c2ccc(Nc3ccc(-c4ccccn4)c(Cl)c3)cn2)nc1N1CCOCC1 | < 1
O=C(Nc1cccc(C(F)(F)F)c1)c1ccc(/C=N/Nc2ncc(F)c(N3CCOCC3)n2)nc1 | < 1

Continued, values first:

GI50 [µM] | SMILES
< 1 | Cc1cc(Nc2ccc(/C=N/Nc3ncc(F)c(N4CCOCC4)n3)nc2)cc(N2CCNCC2)c1
< 1 | O=C(NNc1ncc(F)c(N2CCOCC2)n1)c1ccc(Nc2cccc(C(F)(F)F)c2)cn1
< 1 | Fc1cnc(N/N=C/c2ccc(Nc3cccc(C(F)(F)F)c3)cn2)nc1-c1cncc(-c2ccccc2)c1
< 1 | Fc1cnc(N/N=C/c2ccc(-c3cccc(C(F)(F)F)c3)cn2)nc1N1CCOCC1
< 1 | Fc1cnc(N/N=C/c2ccc(Nc3ccc(N4CCOCC4)cc3)cn2)nc1N1CCOCC1
< 1 | CN(C)c1cc(O)cc(Nc2ccc(/C=N/Nc3ncc(F)c(N4CCOCC4)n3)nc2)c1
< 1 | Oc1cccc(Nc2cccc(Nc3ccc(/C=N/Nc4ncc(F)c(N5CCOCC5)n4)nc3)c2)c1
< 1 | Oc1ccc(Br)cc1/C=N/Nc1ncc(F)c(N2CCOCC2)n1
